Measurements from patent US12377104B1, “Methods for treating a fatty liver disease” (Madrigal Pharmaceuticals, Inc., priority 2024, dated 2025).

Experiments:
[1] = MAESTRO-NASH: sex hormones at week 52; conditions: for Estradiol (female), LS mean CFB / Estradiol (female), LS mean difference from PBO (CFB) / Estradiol (male), LS mean CFB / Estradiol (male), LS mean difference from PBO (CFB) / FSH (female), LS mean CFB / FSH (female), LS mean difference from PBO (CFB) / FSH (male), LS mean CFB / FSH (male), LS mean difference from PBO (CFB) / Free testosterone (female), LS mean CFB / Free testosterone (female), LS mean difference from PBO (CFB) / Free testosterone (male), LS mean CFB / Free testosterone (male), LS mean difference from PBO (CFB) / LH (female), LS mean CFB / LH (female), LS mean difference from PBO (CFB) / LH (male), LS mean CFB / LH (male), LS mean difference from PBO (CFB) / SHBG (female), LS mean % CFB / SHBG (female), LS mean CFB / SHBG (female), LS mean difference from PBO (% CFB) / SHBG (female), LS mean difference from PBO (CFB) / SHBG (male), LS mean % CFB / SHBG (male), LS mean CFB / SHBG (male), LS mean difference from PBO (% CFB) / SHBG (male), LS mean difference from PBO (CFB) / SHBG, LS mean % CFB / SHBG, LS mean CFB / SHBG, LS mean difference from PBO (% CFB) / SHBG, LS mean difference from PBO (CFB) / Testosterone (female), LS mean CFB / Testosterone (female), LS mean difference from PBO (CFB) / Testosterone (male), LS mean CFB / Testosterone (male), LS mean difference from PBO (CFB): Week 52
[2] = MAESTRO-NASH: metabolic factors (heart rate, body weight, blood pressure) at week 52; format: in vivo, human; conditions: for Body weight, LS mean % CFB / Body weight, LS mean % CFB difference from PBO / DBP, LS mean % CFB / DBP, LS mean % CFB difference from PBO / Glucose, LS mean % CFB / Glucose, LS mean % CFB difference from PBO / HOMA-IR, LS mean % CFB / HOMA-IR, LS mean % CFB difference from PBO / HbA1c, LS mean % CFB / HbA1c, LS mean % CFB difference from PBO / Heart rate (electrocardiogram), LS mean % CFB / Heart rate (electrocardiogram), LS mean % CFB difference from PBO / Insulin, LS mean % CFB / Insulin, LS mean % CFB difference from PBO / SBP, LS mean % CFB / SBP, LS mean % CFB difference from PBO: week 52
[3] = system: noncirrhotic NASH with stage 2 or stage 3 fibrosis; assay: Trial 1 Month 12 histopathology efficacy analysis (F2 and F3); format: in vivo, human
Procedure: Patients were on stable doses of medications for diabetes, dyslipidemia, and hypertension. […] Two pathologists, Pathologist A and Pathologist B, independently read the liver biopsies for each patient. […] Liver fibrosis was evaluated on the NASH Clinical Research Network (CRN) fibrosis score as 0 to 4. […] No worsening of steatohepatitis was defined as no increase in NAS for ballooning, inflammation, or steatosis. […] Estimated using the Mantel-Haenszel method stratified by baseline type 2 diabetes status (presence or absence) and fibrosis stage (F2 or F3). 95% stratified Newcombe confidence intervals (CIs) are provided. Patients with missing liver biopsy at Month 12 were considered a non-responder.

Structure (SMILES): CC(C)c1cc(Oc2c(Cl)cc(-n3nc(C#N)c(=O)[nH]c3=O)cc2Cl)n[nH]c1=O [Resmetirom, 2-(3,5-dichloro-4-((5-isopropyl-6-oxo-1,6-dihydropyridazin-3-yl)oxy)phenyl)-3,5-dioxo-2,3,4,5-tetrahydro-1,2,4-triazine-6-carbonitrile]
- Estradiol (female), LS mean CFB ([1]; 80 mg): 17.7 ng/L
- Estradiol (female), LS mean difference from PBO (CFB) ([1]; 80 mg): 15.9 ng/L
- Estradiol (male), LS mean CFB ([1]; 80 mg): 8.9 ng/L
- Estradiol (male), LS mean difference from PBO (CFB) ([1]; 80 mg): 9.0 ng/L
- FSH (female), LS mean CFB ([1]; 80 mg): −0.54 mIU/mL
- FSH (female), LS mean difference from PBO (CFB) ([1]; 80 mg): 0.79 mIU/mL
- FSH (male), LS mean CFB ([1]; 80 mg): 1.1 mIU/mL
- FSH (male), LS mean difference from PBO (CFB) ([1]; 80 mg): 1.1 mIU/mL
- Free testosterone (female), LS mean CFB ([1]; 80 mg): 0 nmol/L
- Free testosterone (female), LS mean difference from PBO (CFB) ([1]; 80 mg): 0 nmol/L
- Free testosterone (male), LS mean CFB ([1]; 80 mg): 0.04 nmol/L
- Free testosterone (male), LS mean difference from PBO (CFB) ([1]; 80 mg): 0.02 nmol/L
- LH (female), LS mean CFB ([1]; 80 mg): −0.93 mIU/mL
- LH (female), LS mean difference from PBO (CFB) ([1]; 80 mg): −0.33 mIU/mL
- LH (male), LS mean CFB ([1]; 80 mg): 1.7 mIU/mL
- LH (male), LS mean difference from PBO (CFB) ([1]; 80 mg): 1.8 mIU/mL
- SHBG (female), LS mean % CFB ([1]; 80 mg): 193.0%
- SHBG (female), LS mean CFB ([1]; 80 mg): 74.1 nmol/L
- SHBG (female), LS mean difference from PBO (% CFB) ([1]; 80 mg): 177.4%
- SHBG (female), LS mean difference from PBO (CFB) ([1]; 80 mg): 73.3 nmol/L
- SHBG (male), LS mean % CFB ([1]; 80 mg): 108.0%
- SHBG (male), LS mean CFB ([1]; 80 mg): 41.9 nmol/L
- SHBG (male), LS mean difference from PBO (% CFB) ([1]; 80 mg): 107.3%
- SHBG (male), LS mean difference from PBO (CFB) ([1]; 80 mg): 40.4 nmol/L
- SHBG, LS mean % CFB ([1]; 80 mg): 157.5%
- SHBG, LS mean CFB ([1]; 80 mg): 60.2 nmol/L
- SHBG, LS mean difference from PBO (% CFB) ([1]; 80 mg): 148.5%
- SHBG, LS mean difference from PBO (CFB) ([1]; 80 mg): 58.9 nmol/L
- Testosterone (female), LS mean CFB ([1]; 80 mg): 0.15 µg/L
- Testosterone (female), LS mean difference from PBO (CFB) ([1]; 80 mg): 0.15 µg/L
- Testosterone (male), LS mean CFB ([1]; 80 mg): 2.6 µg/L
- Testosterone (male), LS mean difference from PBO (CFB) ([1]; 80 mg): 2.2 µg/L
- Estradiol (female), LS mean CFB ([1]; 100 mg): 30.6 ng/L
- Estradiol (female), LS mean difference from PBO (CFB) ([1]; 100 mg): 28.8 ng/L
- Estradiol (male), LS mean CFB ([1]; 100 mg): 11.0 ng/L
- Estradiol (male), LS mean difference from PBO (CFB) ([1]; 100 mg): 11.2 ng/L
- FSH (female), LS mean CFB ([1]; 100 mg): 0.63 mIU/mL
- FSH (female), LS mean difference from PBO (CFB) ([1]; 100 mg): 2.0 mIU/mL
- FSH (male), LS mean CFB ([1]; 100 mg): 1.7 mIU/mL
- FSH (male), LS mean difference from PBO (CFB) ([1]; 100 mg): 1.7 mIU/mL
- Free testosterone (female), LS mean CFB ([1]; 100 mg): 0 nmol/L
- Free testosterone (female), LS mean difference from PBO (CFB) ([1]; 100 mg): 0 nmol/L
- Free testosterone (male), LS mean CFB ([1]; 100 mg): 0.03 nmol/L
- Free testosterone (male), LS mean difference from PBO (CFB) ([1]; 100 mg): 0.01 nmol/L
- LH (female), LS mean CFB ([1]; 100 mg): 0.80 mIU/mL
- LH (female), LS mean difference from PBO (CFB) ([1]; 100 mg): 1.4 mIU/mL
- LH (male), LS mean CFB ([1]; 100 mg): 1.9 mIU/mL
- LH (male), LS mean difference from PBO (CFB) ([1]; 100 mg): 2.0 mIU/mL
- SHBG (female), LS mean % CFB ([1]; 100 mg): 251.8%
- SHBG (female), LS mean CFB ([1]; 100 mg): 94.0 nmol/L
- SHBG (female), LS mean difference from PBO (% CFB) ([1]; 100 mg): 236.2%
- SHBG (female), LS mean difference from PBO (CFB) ([1]; 100 mg): 93.2 nmol/L
- SHBG (male), LS mean % CFB ([1]; 100 mg): 174.0%
- SHBG (male), LS mean CFB ([1]; 100 mg): 60.8 nmol/L
- SHBG (male), LS mean difference from PBO (% CFB) ([1]; 100 mg): 173.3%
- SHBG (male), LS mean difference from PBO (CFB) ([1]; 100 mg): 59.3 nmol/L
- SHBG, LS mean % CFB ([1]; 100 mg): 217.4%
- SHBG, LS mean CFB ([1]; 100 mg): 80.7 nmol/L
- SHBG, LS mean difference from PBO (% CFB) ([1]; 100 mg): 208.4%
- SHBG, LS mean difference from PBO (CFB) ([1]; 100 mg): 79.4 nmol/L
- Testosterone (female), LS mean CFB ([1]; 100 mg): 0.19 µg/L
- Testosterone (female), LS mean difference from PBO (CFB) ([1]; 100 mg): 0.19 µg/L
- Testosterone (male), LS mean CFB ([1]; 100 mg): 3.5 µg/L
- Testosterone (male), LS mean difference from PBO (CFB) ([1]; 100 mg): 3.0 µg/L
- levels of sex hormones ([1]; in vivo): little changed from baseline
- Body weight, LS mean % CFB ([2]; 80 mg): −1.2%
- Body weight, LS mean % CFB difference from PBO ([2]; 80 mg): 0.35%
- DBP, LS mean % CFB ([2]; 80 mg): −1.6%
- DBP, LS mean % CFB difference from PBO ([2]; 80 mg): −1.5%
- Glucose, LS mean % CFB ([2]; 80 mg): 0.72%
- Glucose, LS mean % CFB difference from PBO ([2]; 80 mg): 2.9%
- HOMA-IR, LS mean % CFB ([2]; 80 mg): 9.1%
- HOMA-IR, LS mean % CFB difference from PBO ([2]; 80 mg): −5.3%
- HbA1c, LS mean % CFB ([2]; 80 mg): 1.7%
- HbA1c, LS mean % CFB difference from PBO ([2]; 80 mg): 0.19%
- Heart rate (electrocardiogram), LS mean % CFB ([2]; 80 mg): −1.7%
- Heart rate (electrocardiogram), LS mean % CFB difference from PBO ([2]; 80 mg): −1.5%
- Insulin, LS mean % CFB ([2]; 80 mg): 2.8%
- Insulin, LS mean % CFB difference from PBO ([2]; 80 mg): 2.3%
- SBP, LS mean % CFB ([2]; 80 mg): −1.9%
- SBP, LS mean % CFB difference from PBO ([2]; 80 mg): 2.7%
- Body weight, LS mean % CFB ([2]; 100 mg): −1.8%
- Body weight, LS mean % CFB difference from PBO ([2]; 100 mg): −0.88%
- DBP, LS mean % CFB ([2]; 100 mg): −2.0%
- DBP, LS mean % CFB difference from PBO ([2]; 100 mg): −1.9%
- Glucose, LS mean % CFB ([2]; 100 mg): −3.4%
- Glucose, LS mean % CFB difference from PBO ([2]; 100 mg): 5.6%
- HOMA-IR, LS mean % CFB ([2]; 100 mg): 3.4%
- HOMA-IR, LS mean % CFB difference from PBO ([2]; 100 mg): 11.0%
- HbA1c, LS mean % CFB ([2]; 100 mg): 1.5%
- HbA1c, LS mean % CFB difference from PBO ([2]; 100 mg): 0.05%
- Heart rate (electrocardiogram), LS mean % CFB ([2]; 100 mg): 2.6%
- Heart rate (electrocardiogram), LS mean % CFB difference from PBO ([2]; 100 mg): −2.4%
- Insulin, LS mean % CFB ([2]; 100 mg): 3.3%
- Insulin, LS mean % CFB difference from PBO ([2]; 100 mg): 1.8%
- SBP, LS mean % CFB ([2]; 100 mg): 2.1%
- SBP, LS mean % CFB difference from PBO ([2]; 100 mg): 2.9%
- blood pressure ([2]; in vivo): slightly reduced
- effect on heart rate or body weight ([2]; in vivo): no effect on heart rate or body weight
- Improvement in liver fibrosis, no worsening of steatohepatitis: response rate, Pathologist A ([3]; 80 mg): 23%
- Improvement in liver fibrosis, no worsening of steatohepatitis: response rate, Pathologist B ([3]; 80 mg): 23%
- Improvement in liver fibrosis: difference in response rate vs. placebo (95% CI), Pathologist A ([3]; 80 mg): 8 (2, 14)
- Improvement in liver fibrosis: difference in response rate vs. placebo (95% CI), Pathologist B ([3]; 80 mg): 11 (5, 17)
- Resolution of steatohepatitis, no worsening of fibrosis: response rate, Pathologist A ([3]; 80 mg): 27%
- Resolution of steatohepatitis, no worsening of fibrosis: response rate, Pathologist B ([3]; 80 mg): 26%
- Resolution of steatohepatitis: difference in response rate vs. placebo (95% CI), Pathologist A ([3]; 80 mg): 14 (8, 20)
- Resolution of steatohepatitis: difference in response rate vs. placebo (95% CI), Pathologist B ([3]; 80 mg): 17 (11, 23)
- Improvement in liver fibrosis, no worsening of steatohepatitis: response rate, Pathologist A ([3]; 100 mg): 28%
- Improvement in liver fibrosis, no worsening of steatohepatitis: response rate, Pathologist B ([3]; 100 mg): 24%
- Improvement in liver fibrosis: difference in response rate vs. placebo (95% CI), Pathologist A ([3]; 100 mg): 13 (7, 20)
- Improvement in liver fibrosis: difference in response rate vs. placebo (95% CI), Pathologist B ([3]; 100 mg): 11 (5, 17)
- Resolution of steatohepatitis, no worsening of fibrosis: response rate, Pathologist A ([3]; 100 mg): 36%
- Resolution of steatohepatitis, no worsening of fibrosis: response rate, Pathologist B ([3]; 100 mg): 24%
- Resolution of steatohepatitis: difference in response rate vs. placebo (95% CI), Pathologist A ([3]; 100 mg): 23 (16, 30)
- Resolution of steatohepatitis: difference in response rate vs. placebo (95% CI), Pathologist B ([3]; 100 mg): 15 (9, 21)
